# Assay results: ChEMBL document CHEMBL1201862, “PubChem BioAssay data set” (2004)
#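 Compound exposure: 48 hours, 5 concentrations, 96-well plates. The concentration for 50% growth inhibition is given as GI50.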 The source made the active and inactive calls. No stated cut-off is given here; in the data, active = GI50 up to about 1.1 µM and inactive = higher.
# What was measured:
# Assay in all cases: growth of human tumour cells (NCI), 48 h
# PC-3 = test system: PC-3
# EKVX = test system: EKVX
# OVCAR-3 = test system: OVCAR-3
# T47D = test system: T47D
# MDA-MB-231 = test system: MDA-MB-231
# MDA-N = test system: MDA-N
# MDA-MB-435 = test system: MDA-MB-435
# HCT-15 = test system: HCT-15
# A549 = test system: A549
# SF-268 = test system: SF-268
# SF-295 = test system: SF-295
# IGROV-1 = test system: IGROV-1
# NCI/ADR-RES = test system: NCI/ADR-RES
# HOP-92 = test system: HOP-92
# 786-0 = test system: 786-0
# OVCAR-8 = test system: OVCAR-8
# KM12 = test system: KM12
# TK-10 = test system: TK-10
# SK-MEL-28 = test system: SK-MEL-28
# SNB-75 = test system: SNB-75
# SW-620 = test system: SW-620
# HCC 2998 = test system: HCC 2998
# RPMI-8226 = test system: RPMI-8226
# CAKI-1 = test system: CAKI-1
# NCI-H460 = test system: NCI-H460
# SR = test system: SR
# RXF 393 = test system: RXF 393
# MOLT-4 = test system: MOLT-4
# SF-539 = test system: SF-539
# UACC-257 = test system: UACC-257
# SNB-19 = test system: SNB-19
# A498 = test system: A498
# HCT-116 = test system: HCT-116
# SK-OV-3 = test system: SK-OV-3
# NCI-H522 = test system: NCI-H522
# MCF7 = test system: MCF7
# COLO 205 = test system: COLO 205
# OVCAR-4 = test system: OVCAR-4
# Hs-578T = test system: Hs-578T
# HT-29 = test system: HT-29
# UACC-62 = test system: UACC-62
# CCRF-CEM = test system: CCRF-CEM
# HL-60 = test system: HL-60
# ACHN = test system: ACHN
# NCI-H23 = test system: NCI-H23
# Malme-3M = test system: Malme-3M
# K562 = test system: K562
# HOP-62 = test system: HOP-62
# SN12C = test system: SN12C
# M14 = test system: M14
# SK-MEL-5 = test system: SK-MEL-5
# U-251 = test system: U-251
# LOX IMVI = test system: LOX IMVI
# OVCAR-5 = test system: OVCAR-5
# NCI-H226 = test system: NCI-H226
# DU-145 = test system: DU-145
# SK-MEL-2 = test system: SK-MEL-2
# UO-31 = test system: UO-31
compound,measurement,setting,value
CCCCCCCCCCCCCCCCCC(=O)OCC(COC1OC(CS(=O)(=O)O)C(O)C(O)C1O)OC(=O)CCCCCCCCCCCCCCCCC (stereo not drawn),GI50,PC-3,> 100 µM (inactive)
same,GI50,EKVX,> 100 µM (inactive)
same,GI50,OVCAR-3,> 100 µM (inactive)
same,GI50,T47D,> 100 µM (inactive)
same,GI50,MDA-MB-231,> 100 µM (inactive)
same,GI50,MDA-N,> 100 µM (inactive)
same,GI50,MDA-MB-435,> 100 µM (inactive)
same,GI50,HCT-15,> 100 µM
same,GI50,A549,> 100 µM (inactive)
same,GI50,SF-268,> 100 µM (inactive)
same,GI50,SF-295,> 100 µM (inactive)
same,GI50,IGROV-1,> 100 µM (inactive)
same,GI50,NCI/ADR-RES,> 100 µM (inactive)
same,GI50,HOP-92,45.2 µM (inactive)
same,GI50,786-0,> 100 µM (inactive)
same,GI50,OVCAR-8,> 100 µM (inactive)
same,GI50,KM12,> 100 µM (inactive)
same,GI50,TK-10,> 100 µM (inactive)
same,GI50,SK-MEL-28,> 100 µM (inactive)
same,GI50,SNB-75,10.4 µM (inactive)
same,GI50,SW-620,> 100 µM (inactive)
same,GI50,HCC 2998,> 100 µM (inactive)
same,GI50,RPMI-8226,> 100 µM (inactive)
same,GI50,CAKI-1,> 100 µM (inactive)
same,GI50,NCI-H460,> 100 µM (inactive)
same,GI50,SR,0.222 µM (active)
same,GI50,RXF 393,> 100 µM (inactive)
same,GI50,MOLT-4,> 100 µM (inactive)
same,GI50,SF-539,> 100 µM (inactive)
same,GI50,UACC-257,> 100 µM (inactive)
same,GI50,SNB-19,> 100 µM (inactive)
same,GI50,A498,> 100 µM (inactive)
same,GI50,HCT-116,> 100 µM (inactive)
same,GI50,SK-OV-3,> 100 µM (inactive)
same,GI50,NCI-H522,> 100 µM (inactive)
same,GI50,MCF7,> 100 µM (inactive)
same,GI50,COLO 205,> 100 µM (inactive)
same,GI50,OVCAR-4,> 100 µM (inactive)
same,GI50,Hs-578T,> 100 µM (inactive)
same,GI50,HT-29,> 100 µM (inactive)
same,GI50,UACC-62,> 100 µM (inactive)
same,GI50,CCRF-CEM,> 100 µM (inactive)
same,GI50,HL-60,> 100 µM (inactive)
same,GI50,ACHN,> 100 µM (inactive)
same,GI50,NCI-H23,> 100 µM (inactive)
same,GI50,Malme-3M,> 100 µM (inactive)
same,GI50,K562,> 100 µM (inactive)
same,GI50,HOP-62,> 100 µM (inactive)
same,GI50,SN12C,> 100 µM (inactive)
same,GI50,M14,> 100 µM (inactive)
same,GI50,SK-MEL-5,> 100 µM (inactive)
same,GI50,U-251,> 100 µM (inactive)
same,GI50,LOX IMVI,> 100 µM (inactive)
same,GI50,OVCAR-5,> 100 µM (inactive)
same,GI50,NCI-H226,> 100 µM (inactive)
same,GI50,DU-145,> 100 µM (inactive)
O=C1c2ccccc2CC12Cc1cc3c(cc1C2)CCC3,GI50,PC-3,39.8 µM (inactive)
same,GI50,EKVX,99.3 µM (inactive)
same,GI50,OVCAR-3,31.6 µM (inactive)
same,GI50,T47D,> 100 µM (inactive)
same,GI50,MDA-MB-231,> 100 µM (inactive)
same,GI50,MDA-N,37.5 µM (inactive)
same,GI50,MDA-MB-435,34 µM (inactive)
same,GI50,HCT-15,43.2 µM
same,GI50,A549,> 100 µM (inactive)
same,GI50,SF-268,> 100 µM (inactive)
same,GI50,SF-295,> 100 µM (inactive)
same,GI50,IGROV-1,87.3 µM (inactive)
same,GI50,NCI/ADR-RES,44 µM (inactive)
same,GI50,HOP-92,37.6 µM (inactive)
same,GI50,786-0,94.4 µM (inactive)
same,GI50,OVCAR-8,> 100 µM (inactive)
same,GI50,KM12,53.5 µM (inactive)
same,GI50,TK-10,> 100 µM (inactive)
same,GI50,SK-MEL-28,45.8 µM (inactive)
same,GI50,SNB-75,33.3 µM (inactive)
same,GI50,SW-620,78.2 µM (inactive)
same,GI50,HCC 2998,57.5 µM (inactive)
same,GI50,RPMI-8226,32 µM (inactive)
same,GI50,CAKI-1,> 100 µM (inactive)
same,GI50,NCI-H460,39.9 µM (inactive)
same,GI50,SR,16.7 µM (inactive)
same,GI50,RXF 393,40.6 µM (inactive)
same,GI50,MOLT-4,22.6 µM (inactive)
same,GI50,SF-539,> 100 µM (inactive)
same,GI50,UACC-257,31.9 µM (inactive)
same,GI50,SK-MEL-2,31.2 µM (inactive)
same,GI50,SNB-19,> 100 µM (inactive)
same,GI50,A498,84.1 µM (inactive)
same,GI50,HCT-116,30.6 µM (inactive)
same,GI50,SK-OV-3,> 100 µM (inactive)
same,GI50,NCI-H522,30.5 µM (inactive)
same,GI50,MCF7,34.5 µM (inactive)
same,GI50,COLO 205,31.3 µM (inactive)
same,GI50,OVCAR-4,> 100 µM (inactive)
same,GI50,Hs-578T,> 100 µM (inactive)
same,GI50,HT-29,21.9 µM (inactive)
same,GI50,CCRF-CEM,55.3 µM (inactive)
same,GI50,HL-60,24 µM (inactive)
same,GI50,ACHN,43.3 µM (inactive)
same,GI50,NCI-H23,> 100 µM (inactive)
same,GI50,Malme-3M,22.7 µM (inactive)
same,GI50,K562,86.7 µM (inactive)
same,GI50,HOP-62,> 100 µM (inactive)
same,GI50,SN12C,59.7 µM (inactive)
same,GI50,M14,19.5 µM (inactive)
same,GI50,SK-MEL-5,20.5 µM (inactive)
same,GI50,U-251,43.1 µM (inactive)
same,GI50,LOX IMVI,57.1 µM (inactive)
same,GI50,OVCAR-5,> 100 µM (inactive)
same,GI50,UO-31,69.3 µM (inactive)
same,GI50,NCI-H226,15.9 µM (inactive)
same,GI50,DU-145,> 100 µM (inactive)
